From patent publication US11530206B2, “Phenylaminopyrimidine amide autophagy inhibitors and methods of use thereof” (Deciphera Pharmaceuticals, LLC, priority 2019, dated 2022)
pIC50: −log10 of the molar value.

Legend:
ULK kinase = assay: pATG13 levels of mutant HRas T24 cells after treatment with ULK inhibitors in combination with trametinib (ELISA); assay type: cell-based, human; conditions: T24 urinary bladder cancer cells (mutant HRas), 250 nM trametinib, overnight, pS318-ATG13
Description: T24 human urinary bladder cancer cells (25000 cells/well) were added to a 96-well tissue-culture treated plate in 100 μL of pre-warmed DMEM medium supplemented with 10% characterized fetal bovine serum (Invitrogen, Carlsbad, Calif.), 100 units/mL penicillin G, and 100 μg/mL streptomycin and allowed to grow overnight at 37° C., 5% CO2, and 95% humidity. The following day, 100 μL of media containing trametinib or DMSO as a control was added to wells. […] A dose response of a test compound (0.5 μL per well) was added. DMSO (0.5 μL) was added to control wells. The plate was briefly shaken to mix wells and then incubated at 37° C. overnight. The next day, the media was aspirated and cells were washed with Dulbecco's Phosphate Buffered Saline (Gibco). Cells were lysed using MPER lysis buffer (Pierce, Rockford, Ill.) containing Halt Phosphatase and Protease Inhibitors (Pierce, Rockford, Ill.) and Phosphatase inhibitor cocktail 2 (Sigma, St. Louis, Mo.) at 4° C. for 10 minutes with shaking.
Plate wells were washed with ELISA wash buffer. Cell lysate was added to wells and incubated at room temperature for 2 hours. Plate wells were washed with ELISA wash buffer. […] Plate wells were washed with ELISA wash buffer. […] Plate wells were washed with ELISA wash buffer. […] The reaction was stopped with 2N Sulfuric Acid. The plate was analyzed at on a plate reader measuring absorbance at 450 nm and 540 nm (background). Signal was calculated by first subtracting the background absorbance at 540 nm from the absorbance at 450 nm for each well. Next, the background corrected absorbance at 450 nm from blank wells was subtracted from test wells. Data was compared to control wells to determine % ATG13 phosphorylation. GraphPad Prism was used to calculate IC50 values.

ULK1 kinase [1] = target: T1, ULK1 kinase (Homo sapiens, UniProt O75385, E37A/K38A); assay: Biochemical assay for ULK1.3 (coupled pyruvate kinase/lactate dehydrogenase assay, peptide substrate); conditions: 0.1 nM ULK1 (residues 1-283), 1 mM ATP
T1 construct: purchased Beryllium
T1 sequence (O75385 1-283 E37A/K38A): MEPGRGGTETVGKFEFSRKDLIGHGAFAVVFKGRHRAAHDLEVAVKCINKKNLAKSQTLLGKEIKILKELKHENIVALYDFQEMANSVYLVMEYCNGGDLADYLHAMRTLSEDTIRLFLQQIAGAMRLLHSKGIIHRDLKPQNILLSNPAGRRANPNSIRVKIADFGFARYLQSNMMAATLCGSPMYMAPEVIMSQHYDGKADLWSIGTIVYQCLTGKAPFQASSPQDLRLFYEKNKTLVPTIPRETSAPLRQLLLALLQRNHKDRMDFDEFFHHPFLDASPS
In short: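 ULK1.3 activity was followed by continuous decrease in 340 nm absorbance over 6 h at 30 °C with 1% DMSO final. Rates were taken from the 2–3 h window and converted to percent inhibition against no-compound and known-inhibitor controls. IC50 values came from curve fitting.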

ULK2 kinase = target: T2, ULK2 kinase (Homo sapiens, UniProt Q8IYT8); assay: Biochemical assay for ULK2 (coupled pyruvate kinase/lactate dehydrogenase assay); conditions: 9.7 nM ULK2 (residues 1-306, GST and His tag), myelin basic protein, 1 mM ATP; read-out: ULK2.2
T2 construct: purchased Eurofins 14-772
In short: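 Continuous PK/LDH-coupled NADH oxidation assay: 9.7 nM ULK2, 0.25 mg/mL myelin basic protein, 1 mM ATP, pH 7.5 Tris/15 mM MgCl2 buffer, 1% DMSO, 30° C. A340 followed 6 h; rate from 2-3 h window converted to % inhibition, IC50 from four-parameter fit.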

ULK1 kinase [2] = target: T3, ULK1 kinase (Homo sapiens, UniProt O75385); assay: Biochemical assay for ULK1.2 (coupled pyruvate kinase/lactate dehydrogenase assay); conditions: 19 nM ULK1 (residues 1-314, His tag), myelin basic protein, 1 mM ATP
T3 construct: purchased Eurofins 14-959
T3 sequence (O75385 with tags, fused parts or gaps): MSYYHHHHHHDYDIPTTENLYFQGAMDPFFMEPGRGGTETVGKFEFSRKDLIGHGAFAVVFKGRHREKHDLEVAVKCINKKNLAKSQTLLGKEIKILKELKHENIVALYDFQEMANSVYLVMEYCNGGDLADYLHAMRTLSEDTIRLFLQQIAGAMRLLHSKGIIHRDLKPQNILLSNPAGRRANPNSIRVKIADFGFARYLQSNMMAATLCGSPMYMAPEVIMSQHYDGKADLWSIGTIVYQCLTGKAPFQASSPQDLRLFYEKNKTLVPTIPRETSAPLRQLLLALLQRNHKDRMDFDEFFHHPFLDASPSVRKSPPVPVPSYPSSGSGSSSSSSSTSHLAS
In short: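 Coupled assay followed the fall in absorbance at 340 nm continuously for 6 hours at 30 °C, with compounds serially diluted at 1% DMSO final. Rates from the 2–3 h window were normalised to no-compound and reference-inhibitor controls. IC50 came from a four-parameter sigmoidal fit.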

T2 sequence (Q8IYT8 with tags, fused parts or gaps): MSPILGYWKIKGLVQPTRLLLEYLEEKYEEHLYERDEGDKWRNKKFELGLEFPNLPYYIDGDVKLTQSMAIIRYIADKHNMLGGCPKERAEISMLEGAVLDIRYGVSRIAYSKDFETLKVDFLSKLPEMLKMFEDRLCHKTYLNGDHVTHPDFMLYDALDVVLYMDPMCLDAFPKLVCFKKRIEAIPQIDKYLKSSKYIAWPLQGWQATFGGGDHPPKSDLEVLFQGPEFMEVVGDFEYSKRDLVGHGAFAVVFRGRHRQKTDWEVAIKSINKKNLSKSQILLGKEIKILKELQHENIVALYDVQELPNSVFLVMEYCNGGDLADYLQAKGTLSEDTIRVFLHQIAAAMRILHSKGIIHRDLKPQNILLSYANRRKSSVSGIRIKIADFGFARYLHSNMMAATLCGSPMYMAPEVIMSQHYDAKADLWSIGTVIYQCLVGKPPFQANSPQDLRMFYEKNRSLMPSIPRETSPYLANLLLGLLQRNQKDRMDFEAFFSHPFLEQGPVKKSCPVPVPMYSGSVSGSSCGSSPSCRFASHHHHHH

Row | Structure (SMILES) | pIC50 (ULK kinase) | pIC50 (ULK1 kinase [1]) | pIC50 (ULK2 kinase) | pIC50 (ULK1 kinase [2])
1 | CN1CCN(c2ccc(Nc3ncc(C(F)(F)F)c(NCCCN4CCCCC4=O)n3)c(C3CC3)c2)CC1 [Example 14] | 7.00 to 8.00 | 7.60 to 9.00 | 7.60 to 9.00 | 7.60 to 9.00
2 | CCc1cc(N2CCN(C)CC2)ccc1Nc1ncc(C(F)(F)F)c(NCCCN2CCCOC2=O)n1 [Example 39] | 7.00 to 8.00 | 7.60 to 9.00 | 7.00 to 7.60 | 7.60 to 9.00
3 | CN1CCN(c2ccc(Nc3ncc(C(F)(F)F)c(NCCCN4CCCOC4=O)n3)c(C3CC3)c2)CC1 [Example 41] | 7.00 to 8.00 | 7.60 to 9.00 | 7.00 to 7.60 | –
4 | CCc1cc(N2CCNCC2)ccc1Nc1ncc(C(F)(F)F)c(NCCCN2CCCOC2=O)n1 [Example 46] | 6.52 to 7.00 | 7.60 to 9.00 | 7.00 to 7.60 | –
5 | CN1CCN(c2ccc(Nc3ncc(C(F)(F)F)c(NCCCN4CCCOCC4=O)n3)c(C3CC3)c2)CC1 [Example 52] | – | 7.60 to 9.00 | 7.00 to 7.60 | 7.60 to 9.00
6 | CN1CCN(c2ccc(Nc3ncc(Cl)c(NCCCN4CCCOCC4=O)n3)c(C3CC3)c2)CC1 [Example 55] | – | – | 6.30 to 7.00 | 6.30 to 7.00
7 | CN1CCN(c2ccc(Nc3ncc(C(F)(F)F)c(NCCCN4CCOCCC4=O)n3)c(C3CC3)c2)CC1 [Example 70] | 7.00 to 8.00 | 7.60 to 9.00 | 7.00 to 7.60 | 7.60 to 9.00
8 | CCc1cc(N2CC3CCC(C2)N3C)ccc1Nc1ncc(C(F)(F)F)c(NCCCN2CCOCCC2=O)n1 [Example 74] | 7.00 to 8.00 | 7.60 to 9.00 | 7.60 to 9.00 | –
9 | CCc1cc(N2CCN(C)CC2)ccc1Nc1ncc(Br)c(NCCCN2CCOCCC2=O)n1 [Example 76] | 7.00 to 8.00 | 7.60 to 9.00 | – | 7.60 to 9.00
10 | CCc1cc(N2CCNCC2)ccc1Nc1ncc(C(F)(F)F)c(NCCCN2CCOCCC2=O)n1 [Example 84] | 6.52 to 7.00 | 7.60 to 9.00 | 7.00 to 7.60 | –
11 | CCc1cc(N2CCN(C)CC2)c(F)cc1Nc1ncc(C(F)(F)F)c(NCCCN2CCOCCC2=O)n1 [Example 86] | 6.52 to 7.00 | 7.00 to 7.60 | – | –
12 | O=C1OCCCN1CCCNc1nc(Nc2ccc(N3CCNCC3)cc2C2CC2)ncc1C(F)(F)F [Example 99] | 6.52 to 7.00 | 7.60 to 9.00 | 7.00 to 7.60 | –
